What was measured:
Assay type in all cases: in vivo
[1] = test system: eggs of Tetranychus urticae; assay: Effect on hatching of eggs of Tetranychus urticae, leaf disc method; details: 5 ppm; for Hatching rate (%): 5 days after insecticide delivery
Protocol: (§1) • (1) Preparation of leaf discs containing eggs: 20 female adult mites of Tetranychus cinnabarinus were transferred onto leaf discs of Vicia faba with a diameter of 2.0 cm (with wetted filter paper at the bottom), then covered it with a lidded culture dish and cultivated under moisturizing conditions, the adult mites were removed within 36 hours and microscopic examination and counting were performed on leaf discs containing eggs. • (2) Investigation of egg population base: Before pesticide soaking, a microscopic examination was conducted on the egg basic number of each leaf disc, with 2 replicates set for each treatment. • (3) Pesticide soaking treatment: The leaf butterflies loaded with mite eggs were soaked in clear water and sulfite compounds for 10 seconds, respectively, then taken out and cultivated under moisturizing conditions. Each treatment should be repeated for no less than 3 times. • (4) Cultivation and observation: The […] were cultivated under normal conditions. Five days after insecticide delivery, the hatching status of mite eggs was investigated. • Note: The temperature and humidity conditions of the constant temperature and humidity incubator after the treatment should be controlled so as to avoid excessive temperature differences, which may cause generation and dripping of condensate water in the culture dish, resulting in abnormal death of eggs due to soaking in water; it is also necessary to ensure sufficient strong ambient light, without directing irradiating the leaves. • (5) Survey of Results: The experimental materials of each treatment group were regularly hydrated and moisturized, and the hatching of eggs was observed. On the 7th day after insecticide delivery, the number of hatched eggs for each treatment was recorded, and the survey of results was recorded in the original notebook. According to the experimental requirements and characteristics of agents, the survey time can be shortened or extended.
(§2) • 1) Surveying and recording the number of hatched eggs for each treatment. • 2) Photographing and recording whether there was any pesticide damage to the leaf discs of Vicia faba. • 3) Recording the developmental status of experimental mite eggs, behavior status of nymph mites, including abnormal phenomena such as delayed or stopped development of mite eggs, difficulty in breaking hull for nymph mites, or painful struggles after hatching, etc. • (6) Calculation method: Based on the survey data, the prevention and control effect of each treatment was calculated according to the following formula, and the calculation results were kept to two decimal places.
(§3) This test adopted the method in Test Example 1 of technical section, mainly used leaf disc method to explore the inhibitory effect on hatching of eggs of Tetranychus urticae by compounds 1-(S,S), 1-(S,R), 1-(R,R), 1-(R,S), 1′-(S,S), 1′-(S,R), 1′-(R,R), 1′-(R,S), compound 1, compound 1′, S-10, R-10, S-10′, R-10′, compound 10, compound 10′, compound 19-(S,S), 19-(S,R), 19-(R,R), 19-(R,S), 19′-(S,S), 19′-(S,R), 19′-(R,R), 19′-(R,S), compound 19, and compound 19′. The concentration of all compounds was 5 ppm.

[2] = test system: eggs of Spodoptera litura; assay: Effect on hatching of eggs of Spodoptera litura, egg piece soaking; details: 500 ppm; for Hatching rate (%), Replicate 1 / Hatching rate (%), Replicate 2 / Hatching rate (%), Replicate 3 / Number of unhatched larvae 4 days after insecticide delivery, Replicate 1 / Number of unhatched larvae 4 days after insecticide delivery, Replicate 2 / Number of unhatched larvae 4 days after insecticide delivery, Replicate 3: Spodoptera litura eggs; for Hatching rate (%), Replicate 1 / Hatching rate (%), Replicate 2 / Hatching rate (%), Replicate 3: 4 days after delivery; for Number of unhatched larvae 4 days after insecticide delivery, Replicate 1 / Number of unhatched larvae 4 days after insecticide delivery, Replicate 2 / Number of unhatched larvae 4 days after insecticide delivery, Replicate 3: soaked 10 minutes
Protocol: • (1) Preparation of paper containing eggs: the egg mass was cut into small pieces, each containing about 60 eggs, soaked in a preformulated test agent for 10 minutes together with paper for egg raising (concentration of each compound of 500 ppm). After taken out, absorbent paper was used to absorb the excess solution adhered to the paper for egg raising and egg pieces. (2) Cultivation: Each egg piece was separately placed in a glass test tube (5.0 cm in height, 2.5 cm in diameter, the same below), which was sealed with plastic paper punctured with fine holes using insect needles and cultivated in an artificial climate chamber at a temperature of (24±1° C.), a relative humidity of (80±10) %, and a photoperiod of L:D=12:12. When the eggs developed until they were about to hatch, castor leaves with a diameter of about 3 cm were added for feeding the hatching larvae; • (3) Observation: the number of hatched and unhatched eggs per egg piece was checked and recorded, and the hatching rate of eggs was calculated according to the formula. Each treatment was repeated for 3 times. • (4) Survey of results: The experimental materials of each treatment group were regularly hydrated and moisturized, and the hatching of eggs was observed. On the 4th day after insecticide delivery, the number of hatched eggs for each treatment was recorded, and the survey of results was recorded in the original notebook. According to the experimental requirements and characteristics of agents, the survey time can be shortened or extended. • 1) Surveying and recording the number of hatched eggs for each treatment. • 2) Recording the developmental status of experimental eggs of Spodoptera litura, behavior status of nymphs, including abnormal phenomena such as delayed or stopped development of eggs of Spodoptera litura, etc. • (5) Calculation method: Based on the survey data, the prevention and control effect of each treatment was calculated according to the following formula, and the calculation results were kept to two decimal places. [formula] [formula]

eggs of Aleyrodidae = assay: Effect on hatching of eggs of Aleyrodidae, leaf disc method; details: 10 ppm; for Hatching rate (%), Replicate 1 / Hatching rate (%), Replicate 2 / Hatching rate (%), Replicate 3 / Number of hatched larvae 5 days after insecticide delivery, Replicate 1 / Number of hatched larvae 5 days after insecticide delivery, Replicate 2 / Number of hatched larvae 5 days after insecticide delivery, Replicate 3: Aleyrodidae eggs; for Hatching rate (%), Replicate 1 / Hatching rate (%), Replicate 2 / Hatching rate (%), Replicate 3: 5 days after delivery; for Number of hatched larvae 5 days after insecticide delivery, Replicate 1 / Number of hatched larvae 5 days after insecticide delivery, Replicate 2 / Number of hatched larvae 5 days after insecticide delivery, Replicate 3: leaf disc
Protocol: as §1, §2
as §3, with “Aleyrodidae” for “Tetranychus urticae”, “10” for “5”

eggs of Thrips = assay: Effect on hatching of eggs of Thrips, leaf disc method; details: 100 ppm; for Hatching rate (%): 5 days after insecticide delivery
Protocol: as §1, §2
as §3, with “Thrips” for “Tetranychus urticae”, “by” for “by compounds”, “100” for “5”

[3] = Replicate 1, listed as 19′-(S, S)
[4] = Replicate 2, listed as 19′-(S, S)
[5] = Replicate 3, listed as 19′-(S, S)

With `CC[C@@H](COS(=O)OCCF)Oc1ccc(Cl)cc1Cl` (stereo partly drawn) [19′-(S,S)] the “inhibitory activity on the hatching of eggs of Tetranychus urticae (in words)” value [1] was “strong inhibitory activities”, the “Hatching rate (%)” value [1, 3] was 0.00% and the “Hatching rate (%)” value [1, 4] was 0.00%. For the same molecule, the “Number of hatched larvae 5 days after insecticide delivery” value [1, 3] was 0, the “Number of hatched larvae 5 days after insecticide delivery” value [1, 4] was 0 and the “inhibitory activity on the hatching of eggs of Spodoptera litura (in words)” value [2] was “good inhibitory activities”. For the same molecule, the “Hatching rate (%), Replicate 1” value ([2]; listed as 19′-(S, S)) was 17.54%, the “Hatching rate (%), Replicate 2” value ([2]; listed as 19′-(S, S)) was 19.70% and the “Hatching rate (%), Replicate 3” value ([2]; listed as 19′-(S, S)) was 18.87%. The “Number of unhatched larvae 4 days after insecticide delivery, Replicate 1” value ([2]; listed as 19′-(S, S)) was 47, the “Number of unhatched larvae 4 days after insecticide delivery, Replicate 2” value ([2]; listed as 19′-(S, S)) was 53 and the “Number of unhatched larvae 4 days after insecticide delivery, Replicate 3” value ([2]; listed as 19′-(S, S)) was 43. For the same molecule, the “inhibitory activity on the hatching of eggs of Aleyrodidae (in words)” value (eggs of Aleyrodidae) was “strong inhibitory activities”, the “Hatching rate (%), Replicate 1” value (eggs of Aleyrodidae; listed as 19′-(S, S)) was 0.00% and the “Hatching rate (%), Replicate 2” value (eggs of Aleyrodidae; listed as 19′-(S, S)) was 0.00%. For the same molecule, the “Hatching rate (%), Replicate 3” value (eggs of Aleyrodidae; listed as 19′-(S, S)) was 0.00%, the “Number of hatched larvae 5 days after insecticide delivery, Replicate 1” value (eggs of Aleyrodidae; listed as 19′-(S, S)) was 0 and the “Number of hatched larvae 5 days after insecticide delivery, Replicate 2” value (eggs of Aleyrodidae; listed as 19′-(S, S)) was 0. The “Number of hatched larvae 5 days after insecticide delivery, Replicate 3” value (eggs of Aleyrodidae; listed as 19′-(S, S)) was 0, the “inhibitory activity on the hatching of eggs of Thrips (in words)” value (eggs of Thrips) was “strong inhibitory activities” and the “Hatching rate (%)” value (eggs of Thrips; [3]) was 0.00%. The “Hatching rate (%)” value (eggs of Thrips; [4]) was 0.00%, the “Hatching rate (%)” value (eggs of Thrips; [5]) was 0.00% and the “Number of hatched larvae 5 days after insecticide delivery” value (eggs of Thrips; [3]) was 0. The “Number of hatched larvae 5 days after insecticide delivery” value (eggs of Thrips; [4]) was 0 and the “Number of hatched larvae 5 days after insecticide delivery” value (eggs of Thrips; [5]) was 0.
`CCC(COS(=O)OCCF)Oc1ccc(Cl)cc1Cl` (stereo not drawn) [Compound 19′] was tested, and the “inhibitory activity on the hatching of eggs of Tetranychus urticae (in words)” value [1] was “strong inhibitory activities”, the “Hatching rate (%)” value ([1]; Replicate 1) was 1.14% and the “Hatching rate (%)” value ([1]; Replicate 2) was 1.92%. For the same molecule, the “Number of hatched larvae 5 days after insecticide delivery” value ([1]; Replicate 1) was 1, the “Number of hatched larvae 5 days after insecticide delivery” value ([1]; Replicate 2) was 2 and the “Hatching rate (%), Replicate 1” value [2] was 32.76%. The “Hatching rate (%), Replicate 2” value [2] was 32.14%, the “Hatching rate (%), Replicate 3” value [2] was 35.94% and the “Number of unhatched larvae 4 days after insecticide delivery, Replicate 1” value [2] was 39. For the same molecule, the “Number of unhatched larvae 4 days after insecticide delivery, Replicate 2” value [2] was 38, the “Number of unhatched larvae 4 days after insecticide delivery, Replicate 3” value [2] was 41 and the “inhibitory activity on the hatching of eggs of Aleyrodidae (in words)” value (eggs of Aleyrodidae) was “strong inhibitory activities”. For the same molecule, the “Hatching rate (%), Replicate 1” value (eggs of Aleyrodidae) was 0.00%, the “Hatching rate (%), Replicate 2” value (eggs of Aleyrodidae) was 0.00% and the “Hatching rate (%), Replicate 3” value (eggs of Aleyrodidae) was 0.00%. For the same molecule, the “Number of hatched larvae 5 days after insecticide delivery, Replicate 1” value (eggs of Aleyrodidae) was 0, the “Number of hatched larvae 5 days after insecticide delivery, Replicate 2” value (eggs of Aleyrodidae) was 0 and the “Number of hatched larvae 5 days after insecticide delivery, Replicate 3” value (eggs of Aleyrodidae) was 0. For the same molecule, the “inhibitory activity on the hatching of eggs of Thrips (in words)” value (eggs of Thrips) was “strong inhibitory activities”, the “Hatching rate (%)” value (eggs of Thrips; Replicate 1) was 0.95% and the “Hatching rate (%)” value (eggs of Thrips; Replicate 2) was 1.15%. For the same molecule, the “Hatching rate (%)” value (eggs of Thrips; Replicate 3) was 0.00%, the “Number of hatched larvae 5 days after insecticide delivery” value (eggs of Thrips; Replicate 1) was 1 and the “Number of hatched larvae 5 days after insecticide delivery” value (eggs of Thrips; Replicate 2) was 1. The “Number of hatched larvae 5 days after insecticide delivery” value (eggs of Thrips; Replicate 3) was 0.

Source: US20260184675A1, “CHIRAL ISOMERIC SULFITE COMPOUND AND APPLICATION THEREOF” (Chengdu Hanova BioSciences Co., Ltd, priority 2024, published 2026)
